Measured values published in PubChem BioAssay AID248 (DTP/NCI, 2004).
Where “and” joins values, the source holds several entries; their conditions need not be identical. Identical values can stand only once. Inconclusive results and toxic doses are left out.

System: L1210 leukemia ip in BDF1 mice, survival T/C
Assay: NCI In Vivo Anticancer Drug Screen. Data for tumor model L1210 Leukemia (intraperitoneal) in B6D2F1 (BDF1) mice
Conditions: endpoint: mean survival time, higher = longer survival
How it was run: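 Transplanted-tumor mice were given test agent; controls received vehicle only. Survival readings from the two groups were divided (treated over control).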

[1] = dose: 100.0 mg/kg/injection, schedule: Q01DX001 (ip), vehicle: saline
[2] = dose: 200.0 mg/kg/injection, schedule: Q01DX001 (ip), vehicle: saline
[3] = dose: 400.0 mg/kg/injection, schedule: Q01DX001 (ip), vehicle: saline
[4] = dose: 50.0 mg/kg/injection, schedule: Q04DX002 (ip), vehicle: saline with Tween-80
[5] = dose: 100.0 mg/kg/injection, schedule: Q04DX002 (ip), vehicle: saline with Tween-80
[6] = dose: 25.0 mg/kg/injection, schedule: Q01DX009 (ip), vehicle: saline
[7] = dose: 50.0 mg/kg/injection, schedule: Q01DX009 (ip), vehicle: saline

CN(N=O)C(=O)NCc1ccc(Cl)cc1
T/C (dose: 9.0 mg/kg/injection, schedule: Q01DX Z (ip), vehicle: carboxymethylcellulose (CMC)): 108 % of control | T/C (dose: 18.0 mg/kg/injection, schedule: Q01DX Z (ip), vehicle: carboxymethylcellulose (CMC)): 91 % of control | T/C (dose: 37.0 mg/kg/injection, schedule: Q01DX Z (ip), vehicle: carboxymethylcellulose (CMC)): 101 % of control | T/C (dose: 75.0 mg/kg/injection, schedule: Q01DX Z (ip), vehicle: carboxymethylcellulose (CMC)): 111 % of control | T/C (dose: 100.0 mg/kg/injection, schedule: Q01DX Z (ip), vehicle: carboxymethylcellulose (CMC)): 109 % of control | T/C (dose: 150.0 mg/kg/injection, schedule: Q01DX Z (ip), vehicle: carboxymethylcellulose (CMC)): 118 % of control | T/C (dose: 200.0 mg/kg/injection, schedule: Q01DX Z (ip), vehicle: carboxymethylcellulose (CMC)): 119 % of control

CN(C(=O)c1cc([N+](=O)[O-])ccc1O)c1ccccc1
T/C [1]: 98 % of control | T/C [2]: 95 % of control | T/C [3]: 101 % of control

CN1CN2c3ccccc3CCC2C2CCCC21 (centres undefined)
T/C [4]: 104 % of control | T/C [5]: 96 % of control | T/C (dose: 200.0 mg/kg/injection, schedule: Q04DX002 (ip), vehicle: saline with Tween-80): 101 % of control

O=C(OC/C=C/CC(Cl)(Cl)Cl)C(Cl)(Cl)Cl
T/C [1]: 104 % of control | T/C (dose: 100.0 mg/kg/injection, schedule: Q01DX009 (ip), vehicle: acetone): 93 % of control | T/C (dose: 100.0 mg/kg/injection, schedule: Q04DX003 (ip), vehicle: acetone): 109 % of control | T/C [2]: 112 % of control | T/C (dose: 200.0 mg/kg/injection, schedule: Q01DX009 (ip), vehicle: acetone): 90 % of control | T/C (dose: 200.0 mg/kg/injection, schedule: Q04DX003 (ip), vehicle: acetone): 103 % of control | T/C [3]: 102 % of control | T/C (dose: 400.0 mg/kg/injection, schedule: Q04DX003 (ip), vehicle: acetone): 93 % of control

CC(=O)C1(C)C(=O)N(S(=O)(=O)c2ccc(C)cc2)C(=O)N1S(=O)(=O)c1ccc(C)cc1 (centres undefined)
T/C [1]: 91 % of control | T/C [2]: 89 % of control | T/C [3]: 100 % of control

COc1cc([N+](=O)[O-])ccc1S(=O)(=O)F
T/C (dose: 100.0 mg/kg/injection, schedule: Q01DX009 (ip), vehicle: gum acacia): 95 % of control | T/C (dose: 200.0 mg/kg/injection, schedule: Q01DX009 (ip), vehicle: gum acacia): 98 % of control | T/C (dose: 400.0 mg/kg/injection, schedule: Q01DX009 (ip), vehicle: gum acacia): 90 % of control

O=C1NC2/C=C/CCCCC12 (centres undefined)
T/C (dose: 100.0 mg/kg/injection, schedule: Q04DX003 (ip), vehicle: other): 95 % of control | T/C (dose: 200.0 mg/kg/injection, schedule: Q04DX003 (ip), vehicle: other): 101 % of control | T/C (dose: 400.0 mg/kg/injection, schedule: Q04DX003 (ip), vehicle: other): 92 % of control

CCCCC#C/C(C)=N\Nc1ccc([N+](=O)[O-])cc1[N+](=O)[O-]
T/C [4]: 98 % of control | T/C [5]: 173 % of control

[B-][N+]12CC[N+]([B-])(CC1)CC2
T/C (dose: 0.06 mg/kg/injection, schedule: Q01DX009 (ip), vehicle: saline sonified): 98 % of control | T/C (dose: 0.06 mg/kg/injection, schedule: Q04DX003 (ip), vehicle: saline sonified): 113 % of control | T/C (dose: 0.13 mg/kg/injection, schedule: Q01DX009 (ip), vehicle: saline sonified): 96 % of control | T/C (dose: 0.13 mg/kg/injection, schedule: Q04DX003 (ip), vehicle: saline sonified): 96 % of control | T/C (dose: 0.25 mg/kg/injection, schedule: Q01DX009 (ip), vehicle: saline sonified): 100 % of control | T/C (dose: 0.25 mg/kg/injection, schedule: Q04DX003 (ip), vehicle: saline sonified): 103 % of control

O=C(N/N=C/c1ccco1)c1ccccc1O
T/C (dose: 50.0 mg/kg/injection, schedule: Q01DX009 (ip), vehicle: saline with Tween-80): 108 % of control | T/C (dose: 100.0 mg/kg/injection, schedule: Q01DX009 (ip), vehicle: saline with Tween-80): 102 % of control | T/C (dose: 200.0 mg/kg/injection, schedule: Q01DX009 (ip), vehicle: saline with Tween-80): 97 % of control

CC[n+]1ccc2cc(OC)c(OC)cc2c1Cc1ccc(OC)c(OC)c1
T/C [6]: 94 % of control | T/C [7]: 115 % of control | T/C (dose: 100.0 mg/kg/injection, schedule: Q04DX003 (ip), vehicle: saline): 98 % of control

Cc1ccc(S(=O)(=O)OC2CN3CCC2CC3)cc1 (centres undefined)
T/C (dose: 12.5 mg/kg/injection, schedule: Q01DX009 (ip), vehicle: saline): 95 % of control | T/C [6]: 100 % of control | T/C [7]: 101 % of control and 102 % of control

CC(=O)n1ccnc1/C=C\c1ccc([N+](=O)[O-])s1
T/C (dose: 100.0 mg/kg/injection, schedule: Q04DX003 (ip), vehicle: Klucel (hydroxypropylcellulose) (HPC)): 103 % of control | T/C (dose: 200.0 mg/kg/injection, schedule: Q04DX003 (ip), vehicle: Klucel (hydroxypropylcellulose) (HPC)): 101 % of control
